Tested on: Plasmodium falciparum
Assay: Antiplasmodial activity against ring-stage chloroquine-resistant Plasmodium falciparum Dd2 assessed as reduction in parasite viability after 72 hrs by SYBR Green I dye-based assay
Type: functional, organism-based
Settings: Dd2, 72 h

`COc1c(O)cc([C@@H]2CC(=O)c3c(O)c(C)c(O)c(C)c3O2)cc1O` and `COc1c(O)cc([C@@H]2CC(=O)c3c(O)c(C)c(OC)c(C)c3O2)cc1O` cannot be ordered by IC50: greater than 10 µM for the first, greater than 10 µM for the second.

`COc1c(O)cc([C@@H]2CC(=O)c3c(O)cc(O)c(CC=C(C)C)c3O2)cc1O` and `CC(C)=CCc1c(O)cc(O)c2c1O[C@H](c1ccc(O)cc1)CC2=O` are within 1.5-fold of each other in IC50: 5.2 µM for the first, 6.7 µM for the second.

Compared with `COc1cc2c(c(O)c1C)C(=O)C[C@@H](c1cc(O)c(OC)c(O)c1)O2`, `CC(C)(O)CCc1c(O)cc(O)c2c1O[C@H](c1ccc(O)cc1)CC2=O` is lower in IC50: greater than 10 µM for the first, 3.4 µM for the second. The second is the more potent here.

Compared with `COc1c(O)ccc(/C=C/c2cc(O)cc(O)c2)c1CC=C(C)C`, `C[C@@H]1CC[C@H]2[C@@H](C)C(=O)O[C@@H]3O[C@@]4(C)CC[C@@H]1[C@]32OO4` [ARTEMISININ] is 480-fold lower in IC50: 5.8 µM for the first, 0.012 µM for the second.

Reference: ChEMBL document CHEMBL4261592, “Antiplasmodial flavanones and a stilbene from Carpha glomerata” (Bioorg Med Chem Lett, 2018)
